# Source: paper PMC1968811, “Pharmacokinetics in melanoma-bearing mice of 5-dihydroxyboryl-6-propyl-2-thiouracil (BPTU), a candidate compound for boron neutron capture therapy” (British Journal of Cancer, 1994)
# Assays:
# [1] = tested on: pigmented B16 melanoma (B16wt); assay: Tumour boron uptake and retention in subcutaneous pigmented B16 tumours; assay type: in vivo, C57/BL mice; details: for Tumour boron conc. / Tumour-to-blood ratio (boron): BSH 50 mg kg-1 boron single dose, B16.wt
# Text: (§1) Br. J. Cancer (1994), 69, 641 647 ? Macmillan Press Ltd., 1994~~~~~~~~~~~~~~~~~~~~~~~~~~~~~~~~~~~~~~~~~~~~~~~~~~~~~~~~~~~~~~~~~~~~~~~~~~~~~~~~~~~~~ Pharmacokinetics in melanoma-bearing- mice of 5-dihydroxyboryl- 6-propyl-2-thiouracil (BPTU), a candidate compound for boron neutron capture therapy R. Verrijkl, I.J.H. Smolders', R. Huiskamp2, P.R. Gavin3,. K.H.I. Philipp2 & A.C. Begg' 'The Netherlands Cancer Institute, Division of Experimental Therapy, Plesmanlaan 121, 1066 CX, Amsterdam, The Netherlands; 2The Netherlands Energy Research Foundation, Division of Radiobiology and Radioecology, PO Box 1, 1755 SG, Petten, The Netherlands; 3Department of Veterinary Clinical Medicine and Surgery and Washington Animal Disease and Diagnostic Laboratory, Washington State University, Pullman, Washington 99164-6610, USA. Summary Blood pharmacokinetics and tissue distribution of 5-dihydroxyboryl-6-propyl-2-thiouracil (BPTU), a boron carrier with postulated melanin-seeking properties for boron neutron capture therapy, were deter- mined in C57/BL mice with subcutaneous pigmented or non-pigmented B16 melanomas. Borocaptate sodium (BSH) was used as a boron compound without melanin-seeking properties in a comparative biodistribution study in the same animal tumour models. […] BPTU was found in large concentra- tions in kidney and liver. Brain boron was approximately 10-fold lower than tumour boron. […] Owing to solubility limits, tumour boron concentrations in this mouse study were too low for effective application of BNCT. However, the high tumour-to-blood and tumour-to-normal tissues ratios indicate that, with appropriate formulation, BPTU could be a promising candidate for clinical BNCT. […] The selective accumulation of "'B-containing compounds in tumours and subsequent irradiation with low-energy (thermal) neutrons form the basis of BNCT. The short track lengths of `'B(n,a)7Li fission pro- ducts (9 and 5 iLm for a and 7Li respectively) offer partial restriction of the radiation dose to the "'B-containing cells. Additional advantages owing to the high-LET (linear energy transfer) character of the emitted radiation are higher biological efficacies compared with photons or X-rays and less effect of hypoxia or cell cycle distribution on the therapeutic effect. The relatively high resistance of melanomas for photon therapy and the presence of a bio- chemical rationale for boron targeting explain the efforts made in this area (Mishima et al., 1989; Madoc Jones et al., 1990). The often high rate of melanogenesis in melanoma cells has led to the development of several boron drugs with melanoma-seeking capacity. The L-isomer of boronphenylalanine (BPA) is taken up by melanoma cells both in vitro and in vivo (Ichihashi et al., 1982; 1989; Coderre et al., 1987; 1990; Allen et al., 1992; Packer et al., 1992). Animal studies on BNCT efficacy and normal tissue tolerance with BPA have also been performed (Coderre et al., 1991; 1992; Hiratsuka et al., 1991). Although the uptake of BPA in melanoma cells is well accepted, incor- poration of boron into melanin might not occur, resulting in poor retention. Boronated thiouracils that enter the melanogenesis pathway at a different point from BPA have been recently synthesised, aiming at boron incorporation into the melanin for better retention (Tjarks & Gabel, 1991). […] Since the radiation dose in BNCT is mainly dependent on cellular boron levels, amelanotic tumour cell subpopulations may limit the efficacy of boron compounds that target the pigmented tumour cell fraction only. […] Begg. Received 1 September 1993; and in revised form 15 November 1993. into cell populations with different pigmentation levels in experimental tumour models, melanomas often increase in the amelanotic fraction with tumour progression and metas- tasis development in humans (Guiliano et al., 1982; Elder, 1987). It is therefore important to establish the capacity of melanoma-seeking boron drugs to target the amelanotic cells in a tumour. […]
# [2] = tested on: non-pigmented B16.013 melanoma; assay: Tumour boron uptake and retention in subcutaneous non-pigmented B16.013 tumours; assay type: in vivo, C57/BL mice; details: for Tumour boron conc. / Tumour-to-blood ratio (boron): BSH 50 mg kg-1 boron single dose, B16.013
# Text: as §1
# [3] = Boron distribution in blood and normal tissues (skin, muscle, brain, kidneys, liver) of tumour-bearing mice; assay type: in vivo, C57/BL mice
# Text: (§2) Br. J. Cancer (1994), 69, 641 647 ? Macmillan Press Ltd., 1994~~~~~~~~~~~~~~~~~~~~~~~~~~~~~~~~~~~~~~~~~~~~~~~~~~~~~~~~~~~~~~~~~~~~~~~~~~~~~~~~~~~~~ Pharmacokinetics in melanoma-bearing- mice of 5-dihydroxyboryl- 6-propyl-2-thiouracil (BPTU), a candidate compound for boron neutron capture therapy R. Verrijkl, I.J.H. Smolders', R. Huiskamp2, P.R. Gavin3,. K.H.I. Philipp2 & A.C. Begg' 'The Netherlands Cancer Institute, Division of Experimental Therapy, Plesmanlaan 121, 1066 CX, Amsterdam, The Netherlands; 2The Netherlands Energy Research Foundation, Division of Radiobiology and Radioecology, PO Box 1, 1755 SG, Petten, The Netherlands; 3Department of Veterinary Clinical Medicine and Surgery and Washington Animal Disease and Diagnostic Laboratory, Washington State University, Pullman, Washington 99164-6610, USA. Summary Blood pharmacokinetics and tissue distribution of 5-dihydroxyboryl-6-propyl-2-thiouracil (BPTU), a boron carrier with postulated melanin-seeking properties for boron neutron capture therapy, were deter- mined in C57/BL mice with subcutaneous pigmented or non-pigmented B16 melanomas. Borocaptate sodium (BSH) was used as a boron compound without melanin-seeking properties in a comparative biodistribution study in the same animal tumour models. […] BPTU was found in large concentra- tions in kidney and liver. Brain boron was approximately 10-fold lower than tumour boron. […] Owing to solubility limits, tumour boron concentrations in this mouse study were too low for effective application of BNCT. However, the high tumour-to-blood and tumour-to-normal tissues ratios indicate that, with appropriate formulation, BPTU could be a promising candidate for clinical BNCT. […] The selective accumulation of "'B-containing compounds in tumours and subsequent irradiation with low-energy (thermal) neutrons form the basis of BNCT. The short track lengths of `'B(n,a)7Li fission pro- ducts (9 and 5 iLm for a and 7Li respectively) offer partial restriction of the radiation dose to the "'B-containing cells. Additional advantages owing to the high-LET (linear energy transfer) character of the emitted radiation are higher biological efficacies compared with photons or X-rays and less effect of hypoxia or cell cycle distribution on the therapeutic effect. The relatively high resistance of melanomas for photon therapy and the presence of a bio- chemical rationale for boron targeting explain the efforts made in this area (Mishima et al., 1989; Madoc Jones et al., 1990). The often high rate of melanogenesis in melanoma cells has led to the development of several boron drugs with melanoma-seeking capacity. […]
# [4] = Solubility limit in formulation for injection; assay type: physicochemical; details: limited the dose administered to mice
# Text: Br. J. Cancer (1994), 69, 641 647 ? Macmillan Press Ltd., 1994~~~~~~~~~~~~~~~~~~~~~~~~~~~~~~~~~~~~~~~~~~~~~~~~~~~~~~~~~~~~~~~~~~~~~~~~~~~~~~~~~~~~~ Pharmacokinetics in melanoma-bearing- mice of 5-dihydroxyboryl- 6-propyl-2-thiouracil (BPTU), a candidate compound for boron neutron capture therapy R. Verrijkl, I.J.H. Smolders', R. Huiskamp2, P.R. Gavin3,. K.H.I. Philipp2 & A.C. Begg' 'The Netherlands Cancer Institute, Division of Experimental Therapy, Plesmanlaan 121, 1066 CX, Amsterdam, The Netherlands; 2The Netherlands Energy Research Foundation, Division of Radiobiology and Radioecology, PO Box 1, 1755 SG, Petten, The Netherlands; 3Department of Veterinary Clinical Medicine and Surgery and Washington Animal Disease and Diagnostic Laboratory, Washington State University, Pullman, Washington 99164-6610, USA. Summary Blood pharmacokinetics and tissue distribution of 5-dihydroxyboryl-6-propyl-2-thiouracil (BPTU), a boron carrier with postulated melanin-seeking properties for boron neutron capture therapy, were deter- mined in C57/BL mice with subcutaneous pigmented or non-pigmented B16 melanomas. Borocaptate sodium (BSH) was used as a boron compound without melanin-seeking properties in a comparative biodistribution study in the same animal tumour models. […] BPTU was found in large concentra- tions in kidney and liver. Brain boron was approximately 10-fold lower than tumour boron. […]
# melanotic B16 cells = details: cited from earlier work; for Retention in cells in vitro: after washing, ref R. Verrijk et al., 1991, unpublished data
# [5] = tested on: non-pigmented B16.013 subclone; parameters: method as in R. Verrijk et al., 1991, unpublished data; details: non-pigmented B16.013 cells; ref R. Verrijk et al., 1991, unpublished data; cited from earlier work
# [6] = Blood boron pharmacokinetics in B16 melanoma-bearing mice (ICP-AES, two-compartment fit); assay type: in vivo, C57/BL mice; details: for Cmax blood, maximum boron concentration in blood: calculated values, BSH 50 mg kg-1 boron i.v.
# Text: as §2, with “cells.” for “cells. Additional advantages owing to the high-LET (linear energy transfer) character of the emitted radiation are higher biological efficacies compared with photons or X-rays and less effect of hypoxia or cell cycle distribution on the therapeutic effect. The relatively high resistance of melanomas for photon therapy and the presence of a bio- chemical rationale for boron targeting explain the efforts made in this area (Mishima et al., 1989; Madoc Jones et al., 1990). The often high rate of melanogenesis in melanoma cells has led to the development of several boron drugs with melanoma-seeking capacity.”
# [7] = tested on: subcutaneous fibrosarcoma RIF-1; assay: BSH boron pharmacokinetics in blood and RIF-1 tumour tissue; assay type: in vivo, C3H/Km mice
# [8] = BSH 50 mg kg-1 boron i.v., 12 min after administration
molecule,measurement,setting,value
"CCCc1[nH]c(=S)[nH]c(=O)c1B(O)O [BPTU, 5-dihydroxyboryl-6-propyl-2-thiouracil]","Change of mean tumour boron concentration, multiple vs single BPTU administration","[1]; 4 x 3.15 vs 3.15 mg kg-1 boron, 24 h, pigmented B16",increased more than three times
same,Tumour boron vs blood boron profile,"[2]; BPTU single dose, non-pigmented tumour variant",tumour boron levels closely followed blood levels
same,Boron in kidney and liver,[3]; BPTU single doses,found in large concentrations in kidney and liver
same,Solubility,[4],insufficient solubility
same,Retention in cells in vitro,melanotic B16 cells; melanotic B16 cells,better retained in the cells than BPA or BSH
same,Retention in cells in vitro,[5],failed to be retained
"O=c1[nH]c(=S)[nH]cc1B(O)O [BTU, boronthiouracil]",Retention in cells in vitro,melanotic B16 cells; melanotic B16 cells,showed no retention at all in either cell line
same,Retention in cells in vitro,[5],showed no retention at all in either cell line
Borocaptate sodium [BSH],Cmax values relative to BPTU,[6]; BSH 50 vs BPTU 3.15 mg kg-1 boron,approximately 10 fold
same,"Cmax blood, maximum boron concentration in blood",[6]; B16wt-bearing mice,59.4 ± 10.6 g mli
same,"Cmax blood, maximum boron concentration in blood",[6]; B16.013-bearing mice,54.1 ± 14.6 g mli
same,Mean ratio Cmax tumour/injected dose,"[1]; BSH 50 mg kg-1 boron i.v., B16wt tumour",0.7
same,Tumour boron conc.,[1]; 4 h,7.6 g g-g'
same,Tumour-to-blood ratio (boron),[1]; 4 h,1.1
same,Tumour boron conc.,[1]; 24 h,2.3 g g-g'
same,Tumour-to-blood ratio (boron),[1]; 24 h,3.4
same,Retention of boron in tumour,"[1]; BSH 50 mg kg-1 boron, 24 and 48 h, pigmented B16","retained in B16 tumours at 24 and 48 h, irrespective of pigmentation degree"
same,"Cmax tumour, maximum boron concentration in tumour","[1]; highest measured values, BSH 50 mg kg-1 boron i.v., B16wt tumour",32.8 3.52 g mg-
same,Mean ratio Cmax tumour/injected dose,"[2]; BSH 50 mg kg-1 boron i.v., B16.013 tumour",1.0
same,Tumour boron conc.,[2]; 4 h,10.5 g g-g'
same,Tumour-to-blood ratio (boron),[2]; 4 h,1.5
same,Tumour boron conc.,[2]; 24 h,2.2 g g-g'
same,Tumour-to-blood ratio (boron),[2]; 24 h,4.0
same,Retention of boron in tumour,"[2]; BSH 50 mg kg-1 boron, 24 and 48 h, non-pigmented B16","retained in B16 tumours at 24 and 48 h, irrespective of pigmentation degree"
same,"Cmax tumour, maximum boron concentration in tumour","[2]; highest measured values, BSH 50 mg kg-1 boron i.v., B16.013 tumour",49.8 11.0 g mg-
same,Liver boron level,[3]; [8],up to 230 Agg- g
same,Liver boron relative to blood boron,[3]; [8],8 fold
same,Liver-to-kidney boron concentration ratio,"[3]; BSH, during the tissue distribution phase",2-4
same,Tumour-to-blood ratios of boron,"[7]; BSH 50 mg kg-1 boron, RIF-1 fibrosarcoma, 24 or 48 h",not significantly above unity
same,Boron tumour-to-blood ratios,"[7]; BSH, at times before 24 h, tumour model not named at the place",below 1
same,Levels of boron in cells vs culture medium,"melanotic B16 cells; melanotic B16 cells incubated with BSH, ref Verrijk et al., 1992",higher than in the culture medium only after 16 h incubation
same,Cellular boron retention after washing,"melanotic B16 cells; melanotic B16 cells, washing with boron-free culture medium for 4 h, ref Verrijk et al., 1992",Partial cel- lular boron retention
